Measurements published in patent US9115142B2, “Heterocycle-substituted piperazino-dihydrothienopyrimidines” (Boehringer Ingelheim International GmbH, priority 2007, dated 2015).
Structures can show the parent of a compound that is named as a salt.

target: PDE4B (Homo sapiens, UniProt Q07343); test: Scintillation Proximity Assay (SPA) of PDE4B enzymatic activity ([H3]-cAMP cleavage); type: biochemical; settings: test substance 1 μM; one-hour incubation with [H3]-cAMP and PDE4B at 30° C.
Procedure: The Scintillation Proximity Assay (SPA) (GE Healthcare, No. TRKQ7090) was carried out by using the different affinities of cyclic 3″-5″-adenosinemonophosphate (cAMP, low affinity) and linear 5″-adenosinemonophosphate (AMP, high affinity) for yttrium silicate scintillator beads. The cAMP specific phosphodiesterase (PDE) PDE4B cleaves the 3″-phosphoester bond of tritium-labelled [H3]-cAMP to form [H3]-5″-AMP. This [H3]-AMP accumulates on the scintillator beads because of its higher affinity for them and causes scintillation events (flashes of light) which are measured in a Wallac Microbeta Scintillation Counter.
The experiment starts with a one-hour incubation of [H3]-cAMP with the PDE4B enzyme in assay buffer at 30° C., in each case once with the Example substance to be tested (in a concentration of 1 μM) and once without the Example substance to be tested.
After this incubation, the reaction is stopped by the addition of the beads. The beads have an opportunity to settle in the next 45 minutes, then the measurement is carried out in the Scintillation Counter. If the substance is capable of inhibiting the enzymatic activity of the PDE4B, less [H3]-AMP is produced during the incubation phase and fewer scintillation events can be measured.

Sequence of PDE4B (Q07343 whole entry, species assumed): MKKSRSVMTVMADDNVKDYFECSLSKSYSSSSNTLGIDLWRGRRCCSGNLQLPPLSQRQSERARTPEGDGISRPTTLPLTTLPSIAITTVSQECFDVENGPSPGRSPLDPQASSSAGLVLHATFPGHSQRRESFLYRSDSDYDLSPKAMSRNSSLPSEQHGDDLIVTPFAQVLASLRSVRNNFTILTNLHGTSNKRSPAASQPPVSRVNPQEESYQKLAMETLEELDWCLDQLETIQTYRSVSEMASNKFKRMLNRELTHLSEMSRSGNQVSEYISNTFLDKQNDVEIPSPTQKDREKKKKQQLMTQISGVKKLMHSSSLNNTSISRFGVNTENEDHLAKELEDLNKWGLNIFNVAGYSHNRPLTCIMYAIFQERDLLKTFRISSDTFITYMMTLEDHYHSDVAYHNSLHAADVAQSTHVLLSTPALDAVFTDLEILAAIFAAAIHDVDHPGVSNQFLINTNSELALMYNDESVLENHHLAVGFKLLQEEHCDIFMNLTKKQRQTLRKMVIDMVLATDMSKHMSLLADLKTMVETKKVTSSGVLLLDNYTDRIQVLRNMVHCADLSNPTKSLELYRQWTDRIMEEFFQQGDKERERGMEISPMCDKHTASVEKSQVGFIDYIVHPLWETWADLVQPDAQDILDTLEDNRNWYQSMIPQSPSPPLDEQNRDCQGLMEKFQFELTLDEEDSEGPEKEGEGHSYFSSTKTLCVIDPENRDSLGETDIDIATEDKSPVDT

| inhibition at 1 µM [%] | SMILES |
| --- | --- |
| 96 | [O-][S+]1CCc2nc(N3CCN(c4ccnnc4)CC3)nc(Nc3cccc(F)c3)c21 (stereo not drawn) [Example 18, (3-fluorophenyl)-[5-oxo-2-(4-pyridazin-4-yl-piperazin-1-yl) 6,7-dihydro-5H-5λ^4-thieno[3,2-d]pyrimidin-4-yl]-amine] |
| 83 | COc1cccc2c1nc(N1CCN(c3nc4c(c(N[C@@H](CO)C(C)C)n3)[S+]([O-])CC4)CC1)n2C (stereo partly drawn) [Example 23, (R)-2-{2-[4-(4-methoxy-1-methyl-1H-benzimidazol-2-yl)-piperazin-1-yl]-5-oxo-6,7-dihydro-5H-5λ^4-thieno[3,2-d]pyrimidin-4-ylamino}-3-methylbutan-1-ol] |
| 94 | CCN1CCc2ncc(N3CCN(c4nc5c(c(N[C@@H](CO)C(C)C)n4)[S+]([O-])CC5)CC3)nc2CC1 (stereo partly drawn) [Example 24, (R)-2-{2-[4-(7-ethyl-6,7,8,9-tetrahydro-5H-pyrazino[2,3-d]azepin-2-yl)-piperazin-1-yl]-5-oxo-6,7-dihydro-5H-5^4-thieno[3,2-d]pyrimidin-4-ylamino}-3-methylbutan-1-ol] |
| 94 | CC(C)[C@H](CO)Nc1nc(N2CCN(c3ccncn3)CC2)nc2c1[S+]([O-])CC2 (stereo partly drawn) [Example 28, (R)-3-methyl-2-[5-oxo-2-(4-pyrimidin-4-yl-piperazin-1-yl)-6,7-dihydro-5H-5λ^4-thieno[3,2-d]pyrimidin-4-ylamino]-butan-1-ol trifluoroacetate] |
| 94 | CC(C)[C@H](CO)Nc1nc(N2CCN(c3ccnc(O)c3)CC2)nc2c1[S+]([O-])CC2 (stereo partly drawn) [Example 29, 4-{4-[4((R)-1-hydroxymethyl-2-methylpropylamino)-5-oxo-6,7-dihydro-5H-5λ^4-thieno[3,2-d]pyrimidin-2-yl]-piperazin-1-yl}-pyridin-2-ol] |
| 77 | CC(C)[C@H](CO)Nc1nc(N2CCN(c3ccncc3)CC2)nc2c1[S+]([O-])CC2 (stereo partly drawn) [Example 32, (R)-3-methyl-2-[5-oxo-2-(4-pyridin-4-yl-piperazin-1-yl)-6,7-dihydro-5H-5λ^4-thieno[3,2-d]pyrimidin-4-ylamino]-butan-1-ol trifluoroacetate] |
| 94 | CC(C)[C@H](CO)Nc1nc(N2CCN(c3ccnnc3N(C)C)CC2)nc2c1[S+]([O-])CC2 (stereo partly drawn) [Example 36, (R)-2-{2-[4-(3-dimethylaminopyridazin-4-yl)-piperazin-1-yl]-5-oxo-6,7-dihydro-5H-5λ^4-thieno[3,2-d]pyrimidin-4-ylamino}-3-methylbutan-1-ol trifluoroacetate] |
| 90 | CC(C)[C@H](CO)Nc1nc(N2CCN(c3cc(Cl)nnc3O)CC2)nc2c1[S+]([O-])CC2 (stereo partly drawn) [Example 37] |
| 96 | CCOCCOc1ccc(N2CCN(c3nc4c(c(N[C@@H](CO)C(C)C)n3)[S+]([O-])CC4)CC2)nn1 (stereo partly drawn) [Example 38, (R)-2-(2-{4-[6-(2-ethoxyethoxy)-pyridazin-3-yl]-piperazin-1-yl}-5-oxo-6,7-dihydro-5H-5λ^4-thieno[3,2-d]pyrimidin-4-ylamino)-3-methylbutan-1-ol trifluoroacetate] |
| 92 | CC(C)[C@H](CO)Nc1nc(N2CCN(c3ccnnc3)CC2)nc2c1[S+]([O-])CC2 (stereo partly drawn) [Example 39, (R)-3-methyl-2-[5-oxo-2-(4-pyridazin-4-yl-piperazin-1-yl)-6,7-dihydro-5H-5λ^4-thieno[3,2-d]pyrimidin-4-ylamino]-butan-1-ol trifluoroacetate] |
| 95 | [O-][S+]1CCc2nc(N3CCN(c4ccncn4)CC3)nc(NC3(CO)CC3)c21 (stereo not drawn) [Example 55, {1-[5-oxo-2-(4-pyrimidin-4-yl-piperazin-1-yl)-6,7-=dihydro-5H-5λ^4-thieno[3,2-d]pyrimidin-4-ylamino]-cyclopropyl}-methanol trifluoroacetate] |
| 91 | [O-][S+]1CCc2nc(N3CCN(c4ccncc4)CC3)nc(NC3(CO)CC3)c21 (stereo not drawn) [Example 58, {1-[5-oxo-2-(4-pyridin-4-yl-piperazin-1-yl)-6,7-dihydro-5H-5λ^4-thieno[3,2-d]pyrimidin-4-ylamino]-cyclopropyl}-methanol trifluoroacetate] |
| 96 | CN1C[C@@H](Nc2nc(N3CCN(c4ccncn4)CC3)nc3c2[S+]([O-])CC3)CCC1=O (stereo partly drawn) [Example 71, (S)-1-methyl-5-[5-oxo-2-(4-pyrimidin-4-yl-piperazin-1-yl)-6,7-dihydro-5H-5λ^4-thieno[3,2-d]pyrimidin-4-ylamino]-piperidin-2-one] |
| 96 | Cn1c(N2CCN(c3nc4c(c(NC5CCOCC5)n3)[S+]([O-])CC4)CC2)nc2cc(F)ccc21 (stereo not drawn) [Example 87, {2-[4-(5-fluoro-1-methyl-1H-benzoimidazol-2-yl)-piperazin-1-yl]-5-oxo-6,7-dihydro-5H-5λ^4-thieno[3,2-d]pyrimidin-4-yl}-(tetrahydropyran-4-yl)-amine] |
| 93 | [O-][S+]1CCc2nc(N3CCN(c4ccncc4)CC3)nc(NC3CCOCC3)c21 (stereo not drawn) [Example 96, [5-oxo-2-(4-pyridin-4-yl-piperazin-1-yl)-6,7-dihydro-5H-5λ^4-thieno[3,2-d]pyrimidin-4-yl]-(tetrahydropyran-4-yl)-amine trifluoroacetate] |
| 95 | COc1cccc2c1nc(N1CCN(c3nc4c(c(Nc5cccc(F)c5)n3)[S+]([O-])CC4)CC1)n2C (stereo not drawn) [Example 108, (3-fluorophenyl)-{2-[4-(4-methoxy-1-methyl-1H-benzimidazol-2-yl)-piperazin-1-yl]-5-oxo-6,7-dihydro-5H-5λ^4-thieno[3,2-d]pyrimidin-4-yl}-amine trifluoroacetate] |
| 96 | CCN1CCc2ncc(N3CCN(c4nc5c(c(Nc6cccc(F)c6)n4)[S+]([O-])CC5)CC3)nc2CC1 (stereo not drawn) [Example 109, {2-[4-(7-ethyl-6,7,8,9-tetrahydro-5H-pyrazino[2,3-d]azepin-2-yl)-piperazin-1-yl]-5-oxo-6,7-dihydro-5H-5λ^4-thieno[3,2-d]pyrimidin-4-yl}-(3-fluorophenyl)-amine trifluoroacetate] |
| 96 | [O-][S+]1CCc2nc(N3CCN(c4ccncn4)CC3)nc(Nc3cccc(F)c3)c21 (stereo not drawn) [Example 113, (3-fluorophenyl)-[5-oxo-2-(4-pyrimidin-4-yl-piperazin-1-yl)-6,7-dihydro-5H-5λ^4-thieno[3,2-d]pyrimidin-4-yl]-amine trifluoroacetate] |
| 96 | [O-][S+]1CCc2nc(N3CCN(c4ccnc(O)c4)CC3)nc(Nc3cccc(F)c3)c21 (stereo not drawn) [Example 114, 4-{4-[4-(3-fluorophenylamino)-5-oxo-6,7-dihydro-5H-5λ^4-thieno[3,2-d]pyrimidin-2-yl]-piperazin-1-yl}-pyridin-2-ol] |
| 96 | [O-][S+]1CCc2nc(N3CCN(c4ccncc4)CC3)nc(Nc3cccc(F)c3)c21 (stereo not drawn) [Example 117, (3-fluorophenyl)-[5-oxo-2-(4-pyridin-4-yl-piperazin-1-yl)-6,7-dihydro-5H-5λ^4-thieno[3,2-d]pyrimidin-4-yl]-amine] |
| 95 | [O-][S+]1CCc2nc(N3CCN(c4nc(-c5ccc(F)cc5)cs4)CC3)nc(Nc3cccc(F)c3)c21 (stereo not drawn) [Example 142, (3-fluorophenyl)-(2-{4-[4-(4-fluorophenyl)-thiazol-2-yl]-piperazin-1-yl}-5-oxo-6,7-dihydro-5H-5λ^4-thieno[3,2-d]pyrimidin-4-yl)-amine] |
